The values that follow come from US10093675B2, “6,8-disubstituted-9-(heterocyclyl)purines, compositions containing these derivatives and their use in cosmetic and medicinal applications” (USTAV EXPERIMENTALNI BOTANIKY AV CR, V.V.I., priority 2014, dated 2018).

Like-named read-outs stand apart in the source and are kept apart here. A value given as a limit tells only on which side of the number the result lay.

Series [1] deals with breast carcinoma cell line MCF-7. Briefly: In vitro cytotoxic activity (Calcein AM), MCF-7. Format: cell-based, human. The following applies: read-out: Cell line tested/IC50 (μmol/L) MCF7. The text has this: (§1) Because toxic compounds negatively influence metabolic processes of cells, many standard cytotoxicity assays are based on measurement of metabolisation rate of various artificial substrates. Resulting product is then quantified, for example, by means of spectrometry. The assays can be easily modified for use in 96-well plates. For evaluation of cytotoxicity of the […] of this invention, a microtiter assay based on quantification of metabolisation of Calcein AM was used. The assay is widely used in drug screening programs and in chemosensitivity testing. In live cells, Calcein AM is enzymatically hydrolysed and accumulation of resulting calcein is manifested by green fluorescence.
(§2) The following human cell lines were used for routine screening of the compounds: normal diploid fibroblasts BJ, T-lymphoblastic leukemia cell line CEM, promyelocytic leukemia cell line HL-60, erytroid leukemia cell line K-562, breast carcinoma cell line MCF-7, osteosarcoma cell line HOS and melanoma cell line G-361. The cells were maintained in Nunc/Corning 80 cm^2 plastic tissue culture flasks and cultured in cell culture medium (DMEM with 5 g/l glucose, 2 mM glutamine, 100 U/ml penicillin, 100 mmg/ml streptomycin, 10% fetal calf serum and sodium bicarbonate). The cell suspensions were prepared and diluted according to the particular cell type and the expected target cell density (2.500-30.000 cells per well based on cell growth characteristics) and pipetted (80 μl) into 96-well plates. Inoculates were allowed a pre-incubation period of 24 hours at 37° C. and 5% CO2 for stabilization. Tested compound was added in total volume of 20 μl of water at time zero. Usually, test compound was evaluated at six 3-fold dilutions. In routine testing, the highest concentration tested was 100 μM, but it could have been adjusted because of limited solubility of a compound. All drug concentrations were tested in triplicates.
(§3) Incubations of cells with the test compounds lasted for 72 hours at 37° C., in 5% CO2 atmosphere and 100% humidity. At the end of incubation period Calcein AM in PBS was added into final concentration of 1 μg/ml. After another 1 hour of incubation fluorescence (FD) was measured with the Labsystem FIA Reader Fluoroscan Ascent (UK). Growth inhibition (GI) was estimated using the following equitation: GI=(mean FDdrug exposed wells−mean FDblank)/(mean FDcontrol wells−mean FDblank)×100%. The GI50 value, the drug concentration causing 50% reduction of Calcein AM conversion, was calculated from the obtained dose response curves.

The subject of another series is melanoma cell line G-361. In words: In vitro cytotoxic activity (Calcein AM), G-361. The following applies: read-out: Cell line tested/IC50 (μmol/L) G-361. Format: cell-based, human.
Excerpt: as §1, §2, §3

In series [2] the test system is osteosarcoma cell line HOS. In words: In vitro cytotoxic activity (Calcein AM), HOS. The format is cell-based, human. The following applies: 72 hours, read-out: Cell line tested/IC50 (μmol/L) HOS.
Excerpt: as §1, §2, §3

The test system of series [3] is normal diploid fibroblasts BJ. In words: In vitro cytotoxic activity (Calcein AM), BJ. Format: cell-based, human. The following applies: 72 hours, read-out: Cell line tested/IC50 (μmol/L) BJ.
Excerpt: as §1, §2, §3

In series [4] the test system is Human diploid fibroblast BJ. Briefly: In vitro cytotoxic activity (MTT). Format: cell-based. The following applies: 72 hours incubation; concentration causing 20% decrease in mitochondrial dehydrogenase activity. The method, then:
MTT (metabolic tetrazolium toxicity) assay is a standard colorimetric assay for evaluation of cytotoxicity. Mitochondrial dehydrogenase activity converts yellow MTT into violet formazan which is measured by means of spectrometry.
Human diploid fibroblast BJ (passage 18-22) were seeded into 96-well plate (5.000 cells per well). After 6 hours cultivation medium (DMEM with 5 g/l glucose, 2 mM glutamine, 100 U/ml penicillin, 100 mmg/ml streptomycin, 10% fetal calf serum and sodium bicarbonate) was replaced with the cultivation medium containing test compounds in concentration range of 0-200 µM. Highest concentration was adjusted if the solubility of the compound was limiting. Every concentration was tested in pentaplicate. MTT was added to the cells after 72 hours incubation (final concentration 0.5 mg/ml) and incubation continued for another 3 hours. MTT was solubilised by DMSO and absorbance at 570 nm was measured. Growth inhibition (GI) was estimated using the following equitation: GI=(mean A drug exposed wells−mean Ablank/mean Acontrol wells−mean Ablank)×100%. The GI20 value, the drug concentration causing 20% decrease in mitochondrial dehydrogenase activity, was calculated from the obtained dose response curves.

Series [5] relates to cytokinin-dependent tobacco callus Nicotiana tabacum L. cv. Wisconsin 38. In words: Plant cell division: growth of cytokinin-dependent tobacco callus. Format: cell-based. Particulars: for Activity (%); (s.d.): relative activity at concentration with highest activity, 10^−6 M kinetin set at 100%; for Concentration with highest activity (mol/l): tobacco callus fresh weight increase after four weeks, tested 10^−8 M to 10^−4 M.

In series [6] the test system is Salmonella typhimurium histidien auxotrophs TA98 and TA100. Briefly: Ames test. The format is cell-based. Particulars: 2.5 to 5000 μg/plate; presence and absence of Aroclor-induced rat liver S9. A digest of the protocol: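 Strains TA98 and TA100 exposed to compounds in DMSO at 2.5, 5.0, 15, 50, 500, 1500 and 5000 μg/plate following standard Ames/Maron protocols.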

Series [7] deals with T-lymphoblastic leukemia cell line CEM. Briefly: In vitro cytotoxic activity (Calcein AM), CEM. Format: cell-based, human. Particulars: 72 hours, read-out: Cell line tested/IC50 (μmol/L) CEM.
Excerpt: as §1, §2, §3

The test system of series [8] is erytroid leukemia cell line K-562. Briefly: In vitro cytotoxic activity (Calcein AM), K-562. The format is cell-based, human. The following applies: read-out: Cell line tested/IC50 (μmol/L) K-562.
Excerpt: as §1, §2, §3

On to `COc1nc2c(NCc3ccccc3)ncnc2n1C1CCCCO1` (stereo not shown) [Compound 125], for which the IC50 (in [1] (72 hours); in the series on melanoma cell line G-361 (72 hours); in [2]; in series [3]; in series [7]; in [8] (72 hours)) was more than 50 µmol/L in each case. Further, in series [4], the “GI20” value is more than 100 µM. Moreover, the “Activity (%); (s.d.)” value in series [5] is 104 (±2) %. Further, in [5], the “Concentration with highest activity (mol/l)” value (shortened to “Concentration”) is on record as 10^−6-10^−4 mol/l. Moreover, the mutagenic response entry in series [6] is “no positive mutagenic responses”.

`COc1nc2c(NC/C=C(\C)CO)ncnc2n1C1CCCCO1` (stereo not shown) [Compound 126, (E)-6-(4-Hydroxy-3-methylbut-2-en-1-ylamino)-8-methoxy-9-(tetrahydropyran-2-yl)-9H-purine]: the IC50 is more than 50 µmol/L in [1] (Homo sapiens, MCF7, 72 hours); more than 50 µmol/L in the series on melanoma cell line G-361 (Homo sapiens, G-361, 72 hours); more than 50 µmol/L in series [2] (Homo sapiens); more than 50 µmol/L in series [3] (Homo sapiens, Fibroblast); more than 50 µmol/L in [7] (Homo sapiens); more than 50 µmol/L in series [8] (Homo sapiens, K562, 72 hours). In addition, in series [4], the “GI20” value was more than 100 µM. Further, in series [5], the “Activity (%); (s.d.)” value is listed as 116 (±6) %. Further, the mutagenic response result in [6] is reported as “no positive mutagenic responses”.

As for `COc1nc2c(NCC=C(C)C)ncnc2n1C1CCCCO1` (stereo not shown) [Compound 127, 8-Methoxy-6-(3-methylbut-2-en-1-ylamino)-9-(tetrahydropyran-2-yl)-9H-purine], the IC50 is more than 50 µmol/L in series [1] (Homo sapiens, MCF7, 72 hours); more than 50 µmol/L in the series on melanoma cell line G-361 (Homo sapiens, G-361, 72 hours); more than 50 µmol/L in series [2] (Homo sapiens); more than 50 µmol/L in series [3] (Homo sapiens, Fibroblast); more than 50 µmol/L in series [7] (Homo sapiens); more than 50 µmol/L in series [8] (Homo sapiens, K562, 72 hours). Further, the “GI20” value in series [4] was more than 100 µM. Moreover, in series [5], the “Activity (%); (s.d.)” value is 114 (±6) %. In addition, the mutagenic response result in series [6] is on record as “no positive mutagenic responses”.

Turning to `COc1cccc(CNc2ncnc3c2nc(OC)n3C2CCCCO2)c1` (stereo not shown) [Compound 128], the IC50 (in series [1] (72 hours); with melanoma cell line G-361 (72 hours); in [2]; in series [3]; in series [7]; in series [8] (72 hours)) was more than 50 µmol/L in each case. Moreover, the “GI20” value in [4] was more than 100 µM. Besides, the “Activity (%); (s.d.)” value in series [5] is 121 (±5) %. In [5], the “Concentration” value is 10^−6-10^−5 mol/l. Besides, the mutagenic response entry in series [6] is “no positive mutagenic responses”.

On to `COc1nc2c(NCc3cccc(O)c3)ncnc2n1C1CCCCO1` (stereo not shown) [Compound 129], for which the IC50 (in series [1] (72 hours); in the series with melanoma cell line G-361 (72 hours); in series [2]; in series [3]; in [7]; in series [8] (72 hours)) was more than 50 µmol/L throughout. In series [4], the “GI20” value is more than 100 µM. Also, the “Activity (%); (s.d.)” value in series [5] is given as 111 (±4) %. Also, the “Concentration” value in series [5] is 10^−6-10^−5 mol/l. Moreover, in series [6], the mutagenic response result is reported as “no positive mutagenic responses”.

Consider `COc1nc2c(NCc3cccc(F)c3)ncnc2n1C1CCCCO1` (stereo not shown) [Compound 130], for which the IC50 (in [1] (72 hours); with melanoma cell line G-361 (72 hours); in series [2]; in series [3]; in [7]; in series [8] (72 hours)) was more than 50 µmol/L in each case. The “GI20” value in [4] is more than 100 µM. Further, the “Activity (%); (s.d.)” value in [5] is 108 (±3) %. Moreover, in series [5], the “Concentration” value was 10^−6-10^−4 mol/l. For the same compound, the mutagenic response entry in series [6] is “no positive mutagenic responses”.

Turning to `CSc1nc2c(NC/C=C(\C)CO)ncnc2n1C1CCCCO1` (stereo not shown) [Compound 146], the IC50 (in [1] (72 hours); in the series on melanoma cell line G-361 (72 hours); in [2]; in series [3]; in series [7]; in [8] (72 hours)) was more than 50 µmol/L each time. Besides, in series [4], the “GI20” value was more than 100 µM. In series [5], the “Activity (%); (s.d.)” value is recorded as 108 (±5) %. Besides, the “Concentration” value in series [5] is reported as 10^−6-10^−5 mol/l. Further, the mutagenic response entry in series [6] is reported as “no positive mutagenic responses”.

For the compound `CSc1nc2c(NCC=C(C)C)ncnc2n1C1CCCCO1` (stereo not shown) [Compound 147], the IC50 (in series [1] (72 hours); with melanoma cell line G-361 (72 hours); in series [2]; in [3]; in series [7]; in series [8] (72 hours)) was more than 50 µmol/L each time. The “GI20” value in series [4] was more than 100 µM. Further, the “Activity (%); (s.d.)” value in series [5] is on record as 112 (±2) %. Also, the “Concentration” value in series [5] is 10^−6-10^−4 mol/l. The mutagenic response entry in [6] is on record as “no positive mutagenic responses”.

`CSc1nc2c(NCc3cccc(O)c3)ncnc2n1C1CCCCO1` (stereo not shown) [Compound 149]: the IC50 (in series [1] (72 hours); in the series on melanoma cell line G-361 (72 hours); in series [2]; in series [3]; in series [7]; in series [8] (72 hours)) was more than 50 µmol/L in each case. For the same compound, in series [4], the “GI20” value was more than 100 µM. In series [5], the “Activity (%); (s.d.)” value is reported as 107 (±1) %. Moreover, the “Concentration” value in [5] was 10^−6-10^−4 mol/l. Further, the mutagenic response result in series [6] is recorded as “no positive mutagenic responses”.

Take `COc1nc2c(NCC=C(C)C)ncnc2n1C1CCCO1` (stereo not shown) [Compound 207]: the IC50 (in series [1] (72 hours); with melanoma cell line G-361 (72 hours); in series [2]; in [3]; in series [7]; in [8] (72 hours)) was more than 50 µmol/L throughout. In addition, the “GI20” value in series [4] was more than 100 µM. For the same compound, the “Activity (%); (s.d.)” value in series [5] is listed as 114 (±3) %. In addition, the “Concentration” value in series [5] is 10^−6-10^−4 mol/l.

Take `COc1cccc(CNc2ncnc3c2nc(OC)n3C2CCCO2)c1` (stereo not shown) [Compound 209]: the IC50 (in [1] (72 hours); in the series with melanoma cell line G-361 (72 hours); in [2]; in series [3]; in [7]; in [8] (72 hours)) was more than 50 µmol/L each time. Besides, the “GI20” value in series [4] is more than 100 µM. The “Activity (%); (s.d.)” value in series [5] was 112 (±4) %. Further, in series [5], the “Concentration” value is given as 10^−6-10^−4 mol/l.
